In publication PMC5677544 (Analytical chemistry, 2017):
Where two headings read alike, the source gives them in different places. Blank lines part the entries; values can stand above or below the compound they belong to.

Tests used:
Experiment in all cases: ESI-MS titration
Assay type in all cases: binding
β-2-microglobulin (β2m) [1] = target: T1, β-2-microglobulin (β2m) (Homo sapiens, UniProt P61769)
β-2-microglobulin (β2m) [2] = target: T1, β-2-microglobulin (β2m); remark: listed apart in the source
β-2-microglobulin (β2m) [3] = target: T1, β-2-microglobulin (β2m); remark: listed apart in the source

Kd (β-2-microglobulin (β2m) [1]): 200 ± 20 µM
Structure (SMILES): C[C@H]1c2cccc(O)c2C(=O)C2=C(O)[C@]3(O)C(=O)C(C(N)=O)=C(O)[C@@H](N(C)C)[C@@H]3[C@@H](O)[C@@H]21 [doxycycline]

Kd (β-2-microglobulin (β2m) [2]): 250 ± 25 µM
Structure (SMILES): CO[C@H]1/C=C/O[C@@]2(C)Oc3c(C)c(O)c4c(O)c(cc(O)c4c3C2=O)NC(=O)/C(C)=C\C=C\[C@H](C)[C@H](O)[C@@H](C)[C@@H](O)[C@@H](C)[C@H](OC(C)=O)[C@@H]1C [rifamycin SV]

Kd (β-2-microglobulin (β2m) [3]): 40 ± 2 µM
Structure (SMILES): Cc1ccc(C(=O)Nc2ccc(S(=O)(=O)O)c3cc(S(=O)(=O)O)cc(S(=O)(=O)O)c23)cc1NC(=O)c1cccc(NC(=O)Nc2cccc(C(=O)Nc3cc(C(=O)Nc4ccc(S(=O)(=O)O)c5cc(S(=O)(=O)O)cc(S(=O)(=O)O)c45)ccc3C)c2)c1 [suramin]
